Structures can show the parent of a compound that is named as a salt.
Tests used:
[1] = test system: TNF-α production in THP-1 cells; assay: Inhibition of TNF-α production in THP-1 cells; type: cell-based; settings: Homo sapiens; TNF-α levels from LPS (10 μg/mL) stimulated THP-1 cells, 100 nM test compound, 20 hours, vs 0.1% DMSO control
Protocol: THP-1 cells, a human monocytic cell line, were maintained in RPMI 1640 (Sigma R8758) supplemented with penicillin (50 U/ml), streptomycin (50 μg/ml) and 10% fetal bovine serum (Moregate BioTech.) at 37° C., 5% CO2 in a humidified incubator. Initial stock solutions of test compounds were made in DMSO. All cells, reagents and test compounds were diluted into culture media. THP-1 cells (1×10^5 cells/well final) and lipopolysaccharide (LPS; 10 μg/mL final; Sigma L-4005, from E. coli serotype 055:B5) were added to 96 well polypropylene culture plates (Sumilon, MS-8196F5; sterile) containing test compound or 0.1% DMSO vehicle. The cell mixture was incubated for 20 hours in a humidified incubator at 37° C., 5% CO2. The culture supernatants were harvested and TNF-α levels from LPS stimulated cells in the presence of 100 nM test compound was calculated compared with control cells stimulated in the presence of 0.1% DMSO.

[2] = test system: adjuvant-induced arthritis rats; assay: Inhibition of hind paw swelling in adjuvant-induced arthritis rats; type: in vivo, Lewis rats; settings: Rattus norvegicus, po, 600 h; for inhibition in vivo at 1 mg/kg: dose 1 mg/kg orally once a day from days 15 to 24, left hind paw volume on day 25, read-out: % inhibition of vehicle-treated rats
Protocol: Arthritis was induced by injection of 0.5 mg of Mycobacterium tuberculosis (Difco Laboratories, Detroit, Mich.) in 50 μL of liquid paraffin into the right hind footpad of female Lewis rats aged 7 weeks (day 0). Normal untreated rats were used as negative controls. Animals were randomized and grouped (n≧5) for drug treatment based on an increase of left hind paw volume and body weight on day 15. Test compounds were suspended in vehicle (0.5% methylcellulose) and orally administered once a day from days 15 to 24. The volume of the left hind paw was measured on day 25 by a water displacement method using a plethymometer for rats (MK-550; Muromachi Kikai Co., Ltd., Tokyo, Japan).

| SMILES | inhibition at 0.1 µM [1] | inhibition in vivo at 1 mg/kg [2] | also measured |
| --- | --- | --- | --- |
| Cc1ccccc1-n1nc(-c2c(-c3ccc(F)cc3)nn3c2NC(CO)CC3)ccc1=O (stereo in doubt) [Example 124, 6-[(5S)-2-(4-Fluorophenyl)-5-(hydroxymethyl)-4,5,6,7-tetrahydropyrazolo[1,5-a]pyrimidin-3-yl]-2-(2-methylphenyl)pyridazin-3(2H)-one] | 94% | 50.6% | – |
| Cc1ccccc1-n1nc(-c2c(-c3ccc(F)cc3F)nn3c2NCC(CN(C)C)C3)ccc1=O (stereo not shown) [Example 1, 6-{2-(2,4-difluorophenyl)-6-[(dimethylamino)methyl]-4,5,6,7-tetrahydropyrazolo[1,5-a]pyrimidin-3-yl}-2-(2-methylphenyl)-3(2H)-pyridazinone] | 88% | – | inhibition in vivo at 0.3 mg/kg ([2]; dose 0.3 mg/kg orally once a day from days 15 to 24, left hind paw volume on day 25, read-out: % inhibition of vehicle-treated rats): 51.2% |
| Cc1ccccc1-n1nc(-c2c(-c3ccc(F)cc3F)nn3cc(CN(C)C)cnc23)ccc1=O [Example 2, 6-{2-(2,4-Difluorophenyl)-6-[(dimethylamino)methyl]pyrazolo[1,5-a]pyrimidin-3-yl}-2-(2-methylphenyl)-3(2H)-pyridazinone] | 98% | – | – |
| Cc1ccccc1-n1nc(-c2c(-c3ccc(F)cc3)nn3c2NCC(CO)C3)ccc1=O (stereo not shown) [Example 3, 6-[2-(4-Fluorophenyl)-6-(hydroxymethyl)-4,5,6,7-tetrahydropyrazolo[1,5-a]pyrimidin-3-yl]-2-(2-methylphenyl)-3(2H)-pyridazinone] | – | 56.4% | – |
| CCN1CCn2nc(-c3ccc(F)cc3)c(-c3ccc(=O)n(-c4ccccc4C)n3)c21 [Example 6, 6-[1-Ethyl-6-(4-fluorophenyl)-2,3-dihydro-1H-imidazo[1,2-b]pyrazol-7-yl]-2-(2-methylphenyl)-3(2H)-pyridazinone] | 80% | – | – |
| Cc1ccccc1-n1nc(-c2c(-c3ccc(F)cc3)nn3c2NCC(O)C3)ccc1=O (stereo not shown) [Example 18, 6-[2-(4-Fluorophenyl)-6-hydroxy-4,5,6,7-tetrahydropyrazolo[1,5-a]pyrimidin-3-yl]-2-(2-methylphenyl)-3(2H)-pyridazinone] | – | 46.1% | – |
| Cc1ccccc1-n1nc(-c2c(-c3ccc(F)cc3)nn3c2NCC(CO)(CO)C3)ccc1=O [Example 35, 6-[2-(4-Fluorophenyl)-6,6-bis(hydroxymethyl)-4,5,6,7-tetrahydropyrazolo[1,5-a]pyrimidin-3-yl]-2-(2-methylphenyl)pyridazin-3(2H)-one] | 90% | – | – |
| Cc1ccccc1-n1nc(-c2c(-c3ccc(F)cc3F)nn3c2NCC(CO)C3)ccc1=O (stereo not shown) [Example 37, 6-[2-(2,4-Difluorophenyl)-6-(hydroxymethyl)-4,5,6,7-tetrahydropyrazolo[1,5-a]pyrimidin-3-yl]-2-(2-methylphenyl)pyridazin-3(2H)-one] | 94% | 63.6% | – |
| Cc1ccccc1-n1nc(-c2c(-c3ccc(F)cc3)nn3c2NCC(CN2CCN(C)CC2)C3)ccc1=O (stereo not shown) [Example 47, 6-(2-(4-Fluorophenyl)-6-[(4-methylpiperazin-1-yl)methyl]-4,5,6,7-tetrahydropyrazolo[1,5-a]pyrimidin-3-yl)-2-(2-methylphenyl)pyridazin-3(2H)-one dihydrochloride] | 95% | – | – |
| Cc1ccccc1N1N=C(c2c(-c3ccc(F)cc3F)nn3c2NCC(CN(C)C)C3)CCC1=O (stereo not shown) [Example 55, 6-{2-(2,4-difluorophenyl)-6-[(dimethylamino)methyl]-4,5,6,7-tetrahydropyrazolo[1,5-a]pyrimidin-3-yl}-2-(2-methylphenyl)-4,5-dihydropyridazin-3(2H)-one] | 98% | – | – |
| Cc1ccccc1-n1nc(-c2c(-c3ccc(F)cc3)nn3c2NCC(C(=O)NC2CC2)C3)ccc1=O (stereo not shown) [Example 57, N-cyclopropyl-2-(4-fluorophenyl)-3-[1-(2-methylphenyl)-6-oxo-1,6-dihydropyridazin-3-yl]-4,5,6,7-tetrahydropyrazolo[1,5-a]pyrimidine-6-carboxamide] | 97% | – | – |
| Cc1ccccc1-n1nc(-c2c(-c3ccc(F)cc3)nn3c2NCC2(CCOCC2)C3)ccc1=O [Example 63, 6-[2′-(4-Fluorophenyl)-2,3,4′,5,5′,6-hexahydrospiro[pyran-4,6′-pyrazolo[1,5-a]pyrimidin]-3′-yl]-2-(2-methylphenyl)pyridazin-3(2H)-one] | – | 39.5% | – |
| Cc1ccccc1-n1nc(-c2c(-c3ccc(F)cc3)nn3c2NCC(F)(F)C3)ccc1=O [Example 85, 6-[6,6-Difluoro-2-(4-fluorophenyl)-4,5,6,7-tetrahydropyrazolo[1,5-a]pyrimidin-3-yl]-2-(2-methylphenyl)pyridazin-3(2H)-one] | 88% | – | – |
| Cc1ccccc1-n1nc(-c2c(-c3ccc(F)cc3)nn3c2NCC2(C3)OCCO2)ccc1=O [Example 86, 6-[2′-(4-Fluorophenyl)-4′,5′-dihydrospiro[1,3-dioxolane-2,6′-pyrazolo[1,5-a]pyrimidin]-3′-yl]-2-(2-methylphenyl)pyridazin-3(2H)-one] | – | 48.1% | – |
| Cc1ccccc1-n1nc(-c2c(-c3ccc(F)cc3F)nn3c2NCC(CNC(C)(C)C)C3)ccc1=O (stereo not shown) [Example 98, 6-{6-[(tert-Butylamino)methyl]-2-(2,4-difluorophenyl)-4,5,6,7-tetrahydropyrazolo[1,5-a]pyrimidin-3-yl}-2-(2-methylphenyl)pyridazin-3(2H)-one] | 86% | – | – |
| Cc1ccccc1-n1nc(-c2c(-c3ccc(F)cc3)nn3c2NC[C@@H](O)C3)ccc1=O [Example 100, 6-[(6R)-2-(4-Fluorophenyl)-6-hydroxy-4,5,6,7-tetrahydropyrazolo[1,5-a]pyrimidin-3-yl]-2-(2-methylphenyl)pyridazin-3(2H)-one] | – | – | inhibition in vivo at 0.5 mg/kg ([2]; dose 0.5 mg/kg orally once a day from days 15 to 24, left hind paw volume on day 25, read-out: % inhibition of vehicle-treated rats): 40.2% |
| CC(=O)N1CCC2(CC1)CNc1c(-c3ccc(=O)n(-c4ccccc4C)n3)c(-c3ccc(F)cc3)nn1C2 [Example 107, 6-[1-acetyl-2′-(4-fluorophenyl)-4′,5′-dihydrospiro[piperidine-4,6′-pyrazolo[1,5-a]pyrimidin]-3′-yl]-2-(2-methylphenyl)pyridazin-3(2H)-one] | 90% | – | – |
| Cc1ccccc1-n1nc(-c2c(-c3ccc(F)cc3)nn3c2N[C@H](CO)CC3)ccc1=O [Example 123, 6-[(5S)-2-(4-fluorophenyl)-5-(hydroxymethyl)-4,5,6,7-tetrahydropyrazolo[1,5-a]pyrimidin-3-yl]-2-(2-methylphenyl)pyridazin-3(2H)-one] | 94% | 62.3% | – |
| Cc1ccccc1-n1nc(-c2c(-c3ccc(F)cc3)nn3c2OCC3)ccc1=O [Example 125, 6-[6-(4-fluorophenyl)-2,3-dihydropyrazolo[5,1-b][1,3]oxazol-7-yl]-2-(2-methylphenyl)pyridazin-3(2H)-one] | 83% | – | – |
| Cc1ccccc1-n1nc(-c2c(-c3ccccc3)nn3c2CN(C(C)C)CC3)ccc1=O [Example 130, 6-(5-isopropyl-2-phenyl-4,5,6,7-tetrahydropyrazolo[1,5-a]pyrazin-3-yl)-2-(2-methylphenyl)pyridazin-3(2H)-one] | 70% | – | – |
| Cc1ccccc1-n1nc(-c2c(-c3ccc(F)cc3)nn3c2NCC(C)(C)C3)ccc1=O [Example 132, 6-[2-(4-Fluorophenyl)-6,6-dimethyl-4,5,6,7-teterahydropyrazolo[1,5-a]pyrimidin-3-yl]-2-(2-methylphenyl)pyridazin-3(2H)-one] | – | 60.4% | – |

Source: US20090042856A1, “PYRIDAZINONE DERIVATIVES USED FOR THE TREATMENT OF PAIN” (Astellas Pharma Inc, priority 2005, published 2009)
